Source: ChEMBL document CHEMBL1130877, “The synthesis of new adenosine A3 selective ligands containing bioisosteric isoxazoles” (Bioorg Med Chem Lett, 1998)

Tests used:
Adenosine receptor A3 = molecular target: T1, Adenosine receptor A3 (Homo sapiens, UniProt P0DMS8); experiment: Binding affinity for adenosine A3 receptor as inhibition of [125I]AB-MECA binding to human receptor expressed in HEK 293 cells; type: cell-based, HEK293
T1 sequence (P0DMS8 whole entry): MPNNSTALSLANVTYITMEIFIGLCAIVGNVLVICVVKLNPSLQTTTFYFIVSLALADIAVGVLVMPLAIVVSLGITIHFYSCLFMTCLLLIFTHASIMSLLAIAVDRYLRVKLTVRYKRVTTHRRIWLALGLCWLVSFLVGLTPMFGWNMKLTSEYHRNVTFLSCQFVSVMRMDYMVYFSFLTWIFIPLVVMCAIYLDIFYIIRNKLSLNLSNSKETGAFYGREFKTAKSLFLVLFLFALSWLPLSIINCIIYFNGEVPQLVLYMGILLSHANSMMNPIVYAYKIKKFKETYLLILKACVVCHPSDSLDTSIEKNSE

Adenosine receptor A1 = molecular target: T2, Adenosine receptor A1 (Rattus norvegicus, UniProt P25099); experiment: Binding affinity for adenosine A1 receptor as inhibition of 3[H]-R-PIA binding in rat brain; type: tissue-based
T2 sequence (P25099 whole entry): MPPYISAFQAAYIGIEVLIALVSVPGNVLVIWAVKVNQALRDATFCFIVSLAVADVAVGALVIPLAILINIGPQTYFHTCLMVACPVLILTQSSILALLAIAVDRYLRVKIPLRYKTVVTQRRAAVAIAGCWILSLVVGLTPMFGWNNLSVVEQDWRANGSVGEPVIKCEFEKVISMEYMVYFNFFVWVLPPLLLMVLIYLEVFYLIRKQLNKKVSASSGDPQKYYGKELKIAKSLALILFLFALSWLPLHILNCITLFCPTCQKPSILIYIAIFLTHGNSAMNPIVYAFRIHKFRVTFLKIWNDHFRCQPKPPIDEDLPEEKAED

Adenosine receptor A2a = Adenosine receptor A2a (Rattus norvegicus, UniProt P30543); experiment: Binding affinity for adenosine A2a receptor as inhibition of 3[H]-CGS 21680 binding in rat striatum; type: tissue-based
Chain of Adenosine receptor A2a (P30543 whole entry): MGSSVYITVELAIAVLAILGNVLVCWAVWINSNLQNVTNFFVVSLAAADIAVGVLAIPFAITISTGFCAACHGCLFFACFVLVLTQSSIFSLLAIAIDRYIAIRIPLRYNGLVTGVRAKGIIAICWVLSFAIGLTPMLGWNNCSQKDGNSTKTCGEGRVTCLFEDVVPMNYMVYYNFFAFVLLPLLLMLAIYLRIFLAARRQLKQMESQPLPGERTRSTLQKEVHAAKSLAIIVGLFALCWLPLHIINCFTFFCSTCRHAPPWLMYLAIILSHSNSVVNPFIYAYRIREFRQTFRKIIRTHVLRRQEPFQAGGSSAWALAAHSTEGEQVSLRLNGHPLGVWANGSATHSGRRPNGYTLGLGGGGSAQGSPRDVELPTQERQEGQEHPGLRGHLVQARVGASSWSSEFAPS

Compound	Ki (Adenosine receptor A3) [nM]	Ki (Adenosine receptor A1) [nM]	Ki (Adenosine receptor A2a) [nM]
CONc1nc(Cl)nc2c1ncn2[C@@H]1O[C@H](CCl)[C@@H](O)[C@H]1O	26	–	–
CONc1nc(Cl)nc2c1ncn2[C@@H]1O[C@H](c2ccon2)[C@@H](O)[C@H]1O	31	620	> 10000
CNC(=O)[C@H]1O[C@@H](n2cnc3c(NCc4ccccc4)ncnc32)[C@H](O)[C@@H]1O	41	2400	2100

These reach a lower Ki (Adenosine receptor A3). Values come first.

Ki (Adenosine receptor A3) [nM]	Ki (Adenosine receptor A1) [nM]	Ki (Adenosine receptor A2a) [nM]	Compound
7.8	1900	1900	O[C@@H]1[C@H](O)[C@@H](c2ccon2)O[C@H]1n1cnc2c(NCc3cccc(I)c3)nc(Cl)nc21
20	1230	> 10000	C=C[C@H]1O[C@@H](n2cnc3c(NOC)nc(Cl)nc32)[C@H](O)[C@@H]1O
